Data taken from US20040073961A1, “Nematode screening assay” (priority 2002, published 2004).
Read-outs that look alike come from different tables or passages of the source.

Key:
[1] = biological target: T1, rat I7 OR (Rattus norvegicus, UniProt P23270); assay: Population chemotaxis assay for volatile substances, Str-1::I7 transgenic worms (I7 expressed in AWB neurons); assay type: in vivo, C. elegans; design: expressed in transfected cells; host or cells: transgenic C. elegans; AWB neurons (str-1 promoter) or AWA neurons (odr-10 promoter)
T1 sequence (P23270 1-327): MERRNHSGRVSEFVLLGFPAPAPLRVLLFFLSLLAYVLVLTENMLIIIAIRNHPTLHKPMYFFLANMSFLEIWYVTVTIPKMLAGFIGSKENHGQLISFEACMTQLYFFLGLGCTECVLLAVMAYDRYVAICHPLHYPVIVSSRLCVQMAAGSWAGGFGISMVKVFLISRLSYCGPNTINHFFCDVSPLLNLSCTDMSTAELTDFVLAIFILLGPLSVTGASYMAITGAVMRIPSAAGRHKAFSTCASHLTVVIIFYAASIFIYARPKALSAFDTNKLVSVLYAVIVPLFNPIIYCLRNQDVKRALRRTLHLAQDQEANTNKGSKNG
Protocol: (§1) (Bargmann, C. I., Hartwieg, E., and Horvitz, H. R. (1993) Cell 74, 515-527). One microliter of odorant and one microliter 1 M sodium azide were added at one end of the dish (zone 1), and one microliter of solvent (ethanol) and one microliter 1 M sodium azide were added at the opposite end (zone 6) as a control. Sodium azide was included to anaesthetize animals entering zones 1 and 6.
(§2) Where reported, worms were exposed to a 1:100 dilution of diacetyl, undiluted benzaldehyde, undiluted octanal and 1:5, 1:10, 1:15, 1:25, 1:50, 1:100, and 1:1000 dilutions of octanal (Sigma Chemical Co., St. Louis, Mo.). Population assay data for N2 and transgenic worm lines were compared using the two-tailed t test.
To investigate the possibility to functionally express mammalian ORs in C. elegans, wild-type nematodes were first characterized for their ability to detect and respond to increasing dilutions of volatile chemicals and particularly to octanal, an agonist for the rat I7 OR (FIG. 4B; Zhao, H., Ivic, L., Otaki J. M., Hashimoto, M., Mikoshiba, K., and Firestein, S. (1998) Science 279, […]; Araneda, R. C., Kini, A. D., and Firestein, S. (2000) Nature Neurosci. 12, 1248-1255). […] Higher dilutions of octanal gave chemotaxis indexes close to 0 indicating a neutral response of the wild-type worms to lower concentrations of the odorant. […] As AWB neurons mediate volatile avoidance in C. elegans, it was expected that the expression of the rat I7 OR in AWB neurons and its activation with a 1:10 dilution of octanal would counteract the olfactory attraction to 1:10 octanal observed in wild-type worms. I7 transgenic worms were generated, in which I7 expression was driven by the str-1 promoter, a controlling element exclusively functional in the two AWB neurons (Troemel, E. R., Kimmel, B. E., and Bargmann, C. I. (1997) Cell 91, 161-169). Five independently derived C. elegans transgenic strains expressing I7 were tested (FIG. 5). […]

[2] = system: wild-type C. elegans; conditions: known from the literature, cited from earlier work
[3] = biological target: T1, rat I7 OR; assay: Population chemotaxis assay for volatile substances, Odr-10::I7 transgenic worms (I7 expressed in AWA neurons); assay type: in vivo, C. elegans; design: expressed in transfected cells; host or cells: transgenic C. elegans; AWB neurons (str-1 promoter) or AWA neurons (odr-10 promoter)
Protocol: as §1, §2
AWA neurons mediate chemotaxis to volatile attractants in C. elegans. […] It was expected that the activation of I7 with undiluted octanal in these transgenic worms would counteract the volatile avoidance to undiluted octanal observed in wild-type worms. Chemotaxis assays were performed with four independently derived C. elegans transgenic strains expressing I7 (FIG. 6). […] While most of the wildtype C. elegans were repelled toward zone 6, a significant number of odr-10::I7 transgenic worms was found in the proximity to the odorant source (FIGS. 6B and 3A). In order to investigate the specificity of the decrease in the aversive response of Odr10::I7 transgenic worms to undiluted octanal and to confirm that this decrease was due to the interaction of octanal with I7, chemotaxis assays with Odr-10::I7 transgenic worms were performed in which diacetyl and benzaldehyde were used.

[4] = system: wild-type C. elegans; assay: Population chemotaxis assay for volatile substances, wild-type worms; assay type: in vivo
Protocol: FIG. 3A: Chemotaxis assays on adult C. elegans to volatile compounds. […] One microliter of odorant and one microliter 1 M sodium azide were added at zone 1, and one microliter of control solvent and one microliter 1 M sodium azide were added at zone 6.
as §1, §2

[5] = biological target: T1, rat I7 OR; conditions: from the literature (Zhao 1998; Araneda 2000); cited from earlier work
[6] = specificity controls: 1:100 dilution of diacetyl, pure benzaldehyde, Str-1::I7 transgenic worms
[7] = specificity controls: diacetyl and benzaldehyde, Odr-10::I7 transgenic worms

Structure (SMILES) | change of chemotaxis index in relation to control wild-type worms [1, 6] | behavioral response of wild-type C. elegans ([2]; 1:100 dilution of diacetyl) | change of chemotaxis index in relation to control wild-type worms [3, 7] | chemotaxis index ([4]; 1:10 dilution of octanal, wild-type worms, scored after 1 hour) | chemotaxis index ([4]; higher dilutions of octanal than 1:10, wild-type worms, neutral response) | chemotaxis index ([4]; undiluted octanal, 1 microliter, wild-type worms, scored after 1 hour, +1.0 total attraction, −1.0 total repulsion) | change of chemotaxis index in relation to control wild-type worms ([1]; 1:10 octanal, five Str-1::I7 transgenic worm strains, statistically significant) | activity at the I7 receptor [5] | change of chemotaxis index in relation to control wild-type worms ([3]; undiluted octanal, four Odr-10::I7 transgenic worm strains, statistically significant) | behavioral response of wild-type C. elegans ([2]; pure benzaldehyde)
CC(=O)C(C)=O [diacetyl] | did not change | induce attraction | did not change |  |  |  |  |  |  | 
CCCCCCCC=O [octanal] |  |  |  | +0.5 | ~0 | −0.6 | decreased dramatically | agonist | increased dramatically | 
O=Cc1ccccc1 [benzaldehyde] | did not change |  | did not change |  |  |  |  | do not activate |  | induce aversion
